Source: patent US9320271B2, “Microbial composition” (Rohm and Haas Company, priority 2011, dated 2016)
Several values for one entry are separate records, joined by “and”; a condition that tells them apart may be missing. Identical values can stand only once.

Assays:
Format in all cases: cell-based
[1] = system: Escherichia coli (10536 strain); test: 15 second contact kill test versus E. coli (actives in water, mean bacterial survival NMBS); conditions: for NMBS: no alcohol, 15 s
Protocol: 15 Second Contact Kill Test Versus E. Coli and S. Aureus
Antimicrobial efficacy is tested against a representative pathogenic bacterial organism, Gram negative Escherichia coli. Concentrations of actives are expressed in terms of the percentage weight/volume (% w/v) throughout Example 1.
An overnight culture of Escherichia coli (10536 strain) was prepared in 50 ml total volume of TSB broth, grown for ca. 18 hrs at 37° C. and shaken at 150 rpm. 1 ml of this overnight E. coli culture was transferred to 50 ml of fresh TSB broth and incubated at 37° C. at 150 rpm for ca. 4 hours. This culture was separated into equal volumes and centrifuged at 4000 rpm for 15 minutes, washed with sterile saline (0.85% NaCl), centrifuged once more and re-suspended in saline to give a final concentration of 0.8 OD620 equivalent to about 10^8 cells per milliliter for this particular organism. Here, OD620 indicates the absorbance of a sample in a cuvette of 1.0 cm path length at a wavelength of 620 nm. This bacterial stock was used for assaying against antimicrobial actives (in triplicate). S. Aureus Bacterial Stock
The following assay describes the testing of 8 materials using 6 dilutions across half of a 96-well micro titre plate (MTP). Using this approach it is possible to assay 16 actives (without replicates) with one full dilution plate, replicating this set up in two halves of the plate columns, 1-6 and 7-12. 1M solutions of the test actives were prepared in dimethylsulphoxide (DMSO). […] Aliquots (270 μl) of the materials at 1.11 times the final concentration were dispensed into the wells of the MTP along one column (A1-H1). This MTP was labelled as the “Screening plate”. In another MTP, labelled as the “Dilution plate”, […] of D/E neutralising solution from DIFCO Composition was added to column 1. The composition of the neutralising solution was as follows: pancreatic digest of casein, 5.0 g/L; Yeast Extract, 2.5 g/L; Dextrose, 10 g/L, sodium thioglycollate, 1.0 g/L, sodium thiosulphate, 6.0 g/L; sodium bisulphite, 2.5 g/L; Polysorbate 80, 5.0 g/L; lecithin 7.0 g/L; bromocresol purple, 0.02 g/L with a pH in the range 7.6±0.2. 270 μl of tryptone diluent solution was added to all the remaining wells of the Dilution MTP (columns 2-6). Bacterial stock (30 μl) was then added to the prepared 270 μl of the solution of actives in the Screening Plate and mixed, using a multichannel pipette with 8 tips to aspirate and dispense the same volume of bacterial stock in parallel to 8 wells in rows A-H. After a contact time of 15 seconds, the mixtures were quenched by transferring 30 μl volumes of the mixtures into the 270 μl D/E neutralising solution in the prepared dilution plate, using aspiration to mix. After exactly 5 minutes in the D/E neutralising solution, 30 μl volumes were transferred from column 1 to column 2 of the Dilution MTP and mixed, before transferring further 30 μl volumes from column 2 into column 3. This process was repeated serially diluting the bacteria across the plate to column 6. 30 μl volumes from each well in the Dilution MTP were transferred onto pre-labelled segment of Tryptone Soya Agar (TSA) plates starting from the lowest bacterial concentration (highest dilution, column 6) to the highest bacterial concentration (column 1). The TSA plates were allowed to stand for ca. 2 hours so that the 30 μl inocula spots could dry and the plates were then inverted and incubated overnight at 37° C. before enumerating the bacterial colonies at the labelled dilutions to determine the effects of the actives on bacterial growth. Calculation of Results Mean bacterial survival numbers NMBS (expressed in Log CFU/ml) are obtained by first determining the segment of the TSA plate where the number of bacterial colonies is countable.

[2] = system: Escherichia coli (E. coli—ATCC #10536); test: Synergy test: high resolution MBC microtiter plate assay, phosphate buffer containing 35% dipropylene glycol, 15 seconds contact; conditions: E. coli 10536; for SI (Synergy Index): at Qa and Qb, less than one = synergy; for MBC of the component acting alone (QA / QB; Qa or Qb where the other component is 0): complete kill in 15 seconds
Excerpt: The concentrations and ratios may also vary under different test conditions or with different test methods.
One measure of synergy is the industrially accepted method described by Kull, F. C.; Eisman, P. C.; Sylwestrowicz, H. D, and Mayer, R. L., in Applied Microbiology 9:538-541 (1961), using the ratio determined by the formula: […]=Synergy Index (“SI”) wherein; QA=concentration of compound A (first component) in percent, acting alone, which produced an end point (MBC of Compound A). Qa=concentration of compound A in percent, in the mixture, which produced an end point. QB=concentration of compound B (second component) in percent, acting alone, which, produced an end point (MBC of Compound B). Qb=concentration of compound B in percent, in the mixture, which produced an end point.
When the sum of Qa/QA and Qb/QB is greater than one, antagonism is indicated. […] The lower the SI, the greater is the synergy shown by that particular mixture. The minimum biocidal concentration (MBC) of a microbicide is the lowest concentration tested under a specific set of conditions that provides complete kill of the tested microorganisms.
Synergy tests were conducted using standard microliter plate assays with phosphate buffer containing 35% dipropylene glycol (DPG). In this method, a wide range of combinations of chemicals was tested by conducting high resolution MBC assays of Component (A) in the presence of various concentrations of Component (B). High resolution MBCs were determined by adding varying amounts of microbicide to one column of a microliter plate and doing subsequent […] dilutions using an automated liquid handling, system to obtain a series of closely spaced endpoints. The MBC plate was inoculated one column at a time with the test microorganism. An aliquot of the inoculated well was transferred at 15 seconds to a plate containing a neutralizing agent (D/E Neutralizing Broth), mixed and held for 5 minutes before being transferred to a growth plate containing trypticase soy broth (TSB). The TSB plate was incubated at 37° C. and read for the presence/absence of growth at 24 hours. The lowest level tested that provided complete kill (as evidenced by no growth in the microtitre plate) of the test organisms in 15 seconds is the minimum biocidal concentration (MBC).
The synergy of the combinations of the present invention was determined against a bacterium, Escherichia coli (E. coli—ATCC #10536), at a concentration of approximately 1×10^8 it bacteria per mL. This microorganism is representative of natural contaminants in many consumer and industrial applications.

[3] = system: Escherichia coli (E. coli—ATCC #10536); test: Automated assessment of efficacy in surfactant base (2.85% sodium cocoyl glycinate and 1.85% sodium lauroamphoacetate, pH 10.0), 15 seconds exposure; conditions: for No. of replicates showing growth (out of 4) / Δ OD 450 nm = OD450 (time = 16 hours) − OD450 (time zero), Mean / Δ OD 590 nm OD590 (time = 16 hours) − OD590 (time zero), Mean: alone, model surfactant solution; for MBC (minimum biocidal concentration): in 2.85% sodium cocoyl glycinate + 1.85% sodium lauroamphoacetate solution at pH 10, E. coli
Protocol: Test Methodology for Automated Assessment of Efficacy in Surfactant Base Microbiocidal Activity of Actives as Per the Invention in a Model Surfactant Medium Test Methodology for Automated Assessment of Efficacy in Surfactant Base In these examples, the efficacy of combinations of actives were tested in a surfactant cleansing formulation comprising 2.85% sodium cocoyl glycinate and 1.85% sodium lauroamphoacetate. This corresponds to a 50% in use dilution with water of a neat formulation containing 5.7% cocoyl glycinate and […] % sodium, lauroamphoacetate during hand washing. Solutions were prepared such that the concentrations of the surfactant components and test actives were 1.1× the final desired concentration in order to allow for dilution with the bacterial inoculum in the test. The solutions were manually adjusted to pH 10.0 by dropwise addition of sodium hydroxide solution, as measured with a pH meter at ambient temperature. The efficacy of the combinations of the present invention was determined against Escherichia coli (E. coli—ATCC #10536), at a concentration of approximately 1×10^8 bacteria per mL. Tests were conducted using standard microtiter plate assays using an automated liquid handling system. 270 μl of the surfactant test solution was pipetted into each well of the microtitre plate and 30 μl of the bacterial suspension was then added. Alter exactly 15 seconds of bacterial exposure, a 30 μl volume of bacterial cells was withdrawn and transferred to 270 μl of D/E quench solution. After 5 minutes in the D/E quench, the optical density (OD) was measured for each plate in turn at two specific wavelengths (450 nm and 590 nm). These provide a dual check of antimicrobial activity, as the OD450 reading is specific for the yellow colour of D/E quench when bacterial growth is observed, whereas OD590 is specific for the initial purple colour of the D/E quench which is retained if no bacterial growth is observed. After the time zero OD measurements, plates were then incubated at 37° C. overnight (16 hours) before repeating the OD measurements. Delta OD values were calculated by subtracting […]. Bacterial growth is observed as an increase in OD450 and a decrease in ΔOD590. To identify antibacterially efficacious systems (those preventing appreciable bacterial growth after incubation), the following threshold changes in OD readings have been adopted: if (1). OD450 increases by less than 0.2 absorbance unit on incubation and (2). OD590 decreases by less than 0.35 unit on incubation. Conversely, where OD450 increases by more than 0.2 AU and OD590 decreases by more than 0.35 unit after incubation, corresponding to a colour shift from purple to yellow, the test system allows bacterial growth and is not deemed efficacious. Four replicate measurements in the same plate have been made for each test system. The number of replicate wells showing either bacterial growth or no growth is also readily assessed by eye by following the colour change. Dose responses for individual components and binary mixtures of actives at a fixed concentration ratio were generated by sequential dilution of liquors with further surfactant solution to obtain a series of endpoints. […] In some selected cases, the combinations were also tested at the weight ratio 1:1.

Row | SMILES | NMBS ([1]; 0.0125% 4-benzylphenol, E. coli) [log CFU/ml] | NMBS ([1]; 0.05% 4-benzylphenol, E. coli) [log CFU/ml] | MBC (minimum biocidal concentration of antimicrobial components) ([1]; Table 27, component alone) [% w/v] | Phenolic compound MBC ([1]; Table 28, E. coli, component alone) | NMBS ([1]; […] 4-benzylphenol, E. coli) [log CFU/ml] | SI (Synergy Index) [2] | MBC of the component acting alone (QA / QB; Qa or Qb where the other component is 0) [2] | No. of replicates showing growth (out of 4) ([3]; 0.1% w/v) | Δ OD 450 nm = OD450 (time = 16 hours) − OD450 (time zero), Mean ([3]; 0.1% w/v) | Δ OD 590 nm OD590 (time = 16 hours) − OD590 (time zero), Mean ([3]; 0.1% w/v) | No. of replicates showing growth (out of 4) ([3]; 0.2% w/v) | Δ OD 450 nm = OD450 (time = 16 hours) − OD450 (time zero), Mean ([3]; 0.2% w/v) | Δ OD 590 nm OD590 (time = 16 hours) − OD590 (time zero), Mean ([3]; 0.2% w/v) | No. of replicates showing growth (out of 4) ([3]; […] w/v) | Δ OD 450 nm = OD450 (time = 16 hours) − OD450 (time zero), Mean ([3]; […] w/v) | Δ OD 590 nm OD590 (time = 16 hours) − OD590 (time zero), Mean ([3]; […] w/v) | MBC (minimum biocidal concentration) [3] [% w/v] | No. of replicates showing growth (out of 4) ([3]; 0.125% w/v) | Δ OD 450 nm = OD450 (time = 16 hours) − OD450 (time zero), Mean ([3]; 0.125% w/v) | Δ OD 590 nm OD590 (time = 16 hours) − OD590 (time zero), Mean ([3]; 0.125% w/v)
1 | Oc1ccc(Cc2ccccc2)cc1 [4-benzylphenol, 4-benzyl phenol] | 7.75 | 0.00 | 0.05 | 0.5 % (w/v) | 4.20 |  |  |  |  |  |  |  |  |  |  |  |  |  |  | 
2 | Oc1ccc(Cc2ccccc2)cc1 [4-hydroxydiphenylmethane] |  |  |  |  |  | 1.00 | 0.8 weight % and 0.6 weight % | 4 | −0.58 | 0.52 | 4 | −0.52 | 0.61 | 4 | −0.55 | 0.54 | >0.2 |  |  | 
3 | CC1=CC(C)C(CO)C(C)C1 (centres unmarked) [2,4,6-trimethyl-3-cyclohexene-1-methanol] |  |  |  |  |  | 1.00 | 0.6 weight % and 1 weight % and 0.8 weight % and 0.3 weight % |  |  |  |  |  |  |  |  |  | 0.4 |  |  | 
4 | Oc1ccc(C2CCCC2)cc1 [4-cyclopentylphenol] |  |  |  |  |  | 1.00 | 0.3 weight % and 0.5 weight % and 0.2 weight % |  |  |  | 4 | −0.40 | 0.70 | 4 | −0.45 | 0.65 | >0.2 | 4 | −0.49 | 0.62
5 | Cc1cc(O)cc(C)c1Cl [4-chloro-3,5-dimethylphenol] |  |  |  |  |  | 1.00 | 0.6 weight % and 1.0 weight % and 0.5 weight % | 4 | −0.49 | 0.63 | 4 | −0.50 | 0.62 | 4 | −0.47 | 0.63 | >0.2 |  |  | 
